Experimental data published in US8716275B2, “Compound for the treatment of hepatitis C” (Bristol-Meyers Squibb Company, priority 2011, dated 2014).

Tests used:
[1] = target: T1, hERG potassium channel (Homo sapiens, UniProt Q12809); test: hERG Flux assay (FLIPR); format: cell-based; details: HEK293 cells stably-expressing hERG, thallium flux
T1 construct: expressed in transfected cells; host or cells: HEK293
Experimental: Cells are incubated at 21° C. for 45 minutes.
Data Analysis. […] The raw fluorescence units data files generated on the FLIPR plate reader are automatically exported and processed by in-house data analysis tools.

[2] = system: genotype 1b HCV replicon in Huh-7 cells; test: HCV Replicon Luciferase Assay; format: cell-based; details: Hepatitis C virus, Huh-7, 72 h
Experimental: Cell Lines. The cell lines used to evaluate compounds consist of a human hepatocyte derived cell line (Huh-7) that constitutively expresses a genotype 1b HCV replicon containing a Renilla luciferase reporter gene. These cells were maintained in Dulbecco's modified Eagle medium (DMEM) containing 10% FBS, 100 U/mL penicillin/streptomycin and 1.0 mg/mL G418.
HCV Replicon Luciferase Assay. To evaluate compound efficacy, titrated compounds were transferred to sterile 384-well tissue culture treated plates, and the plates were seeded with HCV replicon cells (50 μL at a density of 2.4×10^3 cells/well) in DMEM containing 4% FBS (final DMSO concentration at 0.5%). After 3 days incubation at 37° C., cells were analyzed for Renilla Luciferase activity using the EnduRen substrate (Promega cat #E6485) according to the manufacturer's directions. Briefly, the EnduRen substrate was diluted in DMEM and then added to the plates to a final concentration of 7.5 μM. The plates were incubated for at least 1 h at 37° C. then read on a Viewlux Imager (PerkinElmer) using a luminescence program. The 50% effective concentration (EC50) was calculated using the four-parameter logistic formula noted above.

[3] = target: T1, hERG potassium channel; test: hERG patch clamp assay; format: cell-based; details: HEK293 cells stably transfected with hERG cDNA, peak tail currents, read-out: % Inhibition (Mean ± SE)
Text: Cell Line. Human embryonic kidney (HEK293) cells stably transfected with human ether-a-go-go related gene (hERG) cDNA were used in the hERG assay. The biophysical and pharmacological properties of recombinant hERG channels expressed in HEK293 cells and of native IKr channels in human cardiac cells are nearly identical. Several known hERG blockers, including dofetilide, terfenadine, cisapride and E-4031 inhibit recombinant hERG currents in the hERG stable cell line and IKr currents in isolated cardiac myocytes with identical potency.
Patch Clamp. […]
Initially, a current-voltage relationship was generated in the control bath solution using the following voltage protocol. hERG currents were elicited by 2 second step depolarizations applied from a holding potential of −80 mV to test potentials ranging from −70 mV to +60 mV. […] The peak tail current was monitored until a new steady-state in the presence of test article was achieved. This was followed by the application of the next higher concentration of test article to be tested, and was repeated until all concentrations of test article had been evaluated. Effects of test article on hERG channel were calculated by measuring inhibition of peak tail currents. Percent inhibition of tail currents was plotted as a function of test article concentration to quantify hERG channel inhibition. […] All currents were recorded at room temperature 25° C.

[4] = target: NS5B protein of HCV, genotype 1b (Hepatitis C virus genotype 1b, UniProt Q9WMX2); test: biochemical
Experimental: The cDNA encoding the NS5B protein of HCV, genotype 1b, was cloned into the pET21a expression vector. The protein was expressed with an 18 amino acid C-terminal truncation to enhance the solubility. The E. coli competent cell line BL21(DE3) was used for expression of the protein. Cultures were grown at 37° C. for ˜4 hours until the cultures reached an optical density of 2.0 at 600 nm. The cultures were cooled to 20° C. and induced with 1 mM IPTG. Fresh ampicillin was added to a final concentration of 50 μg/mL and the cells were grown overnight at 20° C.
The lysis buffer consisted of 20 mM Tris-HCl, pH 7.4, 500 mM NaCl, 0.5% triton X-100, 1 mM DTT, 1 mM EDTA, 20% glycerol, 0.5 mg/mL lysozyme, 10 mM MgCl2, 15 ug/mL deoxyribonuclease I, and Complete TM protease inhibitor tablets (Roche). After addition of the lysis buffer, frozen cell pellets were resuspended using a tissue homogenizer. […]
After incubating for at least 15 minutes, plates were read on an Amersham LEADseeker multimodality imaging system.
IC50 values for compounds were determined using ten different [I]. IC50 values were calculated from the inhibition using the four-parameter logistic formula y=A+((B−A)/(1+((C/x)^D))), where A and B denote minimal and maximal % inhibition, respectively, C is the IC50, D is hill slope and x represents compound concentration.

T1 sequence (Q12809 whole entry): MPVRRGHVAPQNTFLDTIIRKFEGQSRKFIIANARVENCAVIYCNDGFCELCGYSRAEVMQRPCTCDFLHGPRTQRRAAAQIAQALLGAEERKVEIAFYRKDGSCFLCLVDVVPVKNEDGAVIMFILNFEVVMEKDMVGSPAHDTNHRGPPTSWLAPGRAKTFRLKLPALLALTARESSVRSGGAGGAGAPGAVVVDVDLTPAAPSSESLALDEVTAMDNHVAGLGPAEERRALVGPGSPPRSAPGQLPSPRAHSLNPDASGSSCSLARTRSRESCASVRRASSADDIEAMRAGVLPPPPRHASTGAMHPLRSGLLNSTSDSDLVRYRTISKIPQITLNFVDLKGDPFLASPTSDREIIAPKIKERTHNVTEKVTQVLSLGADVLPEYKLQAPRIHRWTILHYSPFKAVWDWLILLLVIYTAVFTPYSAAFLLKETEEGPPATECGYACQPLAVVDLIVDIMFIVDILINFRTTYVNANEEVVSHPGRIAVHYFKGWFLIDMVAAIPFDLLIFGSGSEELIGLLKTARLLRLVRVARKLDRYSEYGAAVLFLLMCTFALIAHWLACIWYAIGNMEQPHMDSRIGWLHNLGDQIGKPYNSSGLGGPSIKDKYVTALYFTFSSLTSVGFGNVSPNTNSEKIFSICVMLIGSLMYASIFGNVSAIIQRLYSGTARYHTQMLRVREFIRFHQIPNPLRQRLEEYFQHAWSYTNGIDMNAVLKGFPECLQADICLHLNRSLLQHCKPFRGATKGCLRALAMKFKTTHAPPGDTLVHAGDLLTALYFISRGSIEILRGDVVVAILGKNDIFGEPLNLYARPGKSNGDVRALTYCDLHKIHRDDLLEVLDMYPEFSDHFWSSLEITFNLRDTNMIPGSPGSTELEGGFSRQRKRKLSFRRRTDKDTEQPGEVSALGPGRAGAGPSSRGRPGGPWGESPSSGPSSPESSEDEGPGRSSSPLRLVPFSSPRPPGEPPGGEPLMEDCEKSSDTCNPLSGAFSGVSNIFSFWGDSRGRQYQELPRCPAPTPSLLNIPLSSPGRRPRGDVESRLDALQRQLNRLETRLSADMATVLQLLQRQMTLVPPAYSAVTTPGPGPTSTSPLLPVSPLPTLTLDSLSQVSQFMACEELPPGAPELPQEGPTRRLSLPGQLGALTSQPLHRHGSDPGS
NS5B protein of HCV, genotype 1b, sequence (Q9WMX2 2420-2992): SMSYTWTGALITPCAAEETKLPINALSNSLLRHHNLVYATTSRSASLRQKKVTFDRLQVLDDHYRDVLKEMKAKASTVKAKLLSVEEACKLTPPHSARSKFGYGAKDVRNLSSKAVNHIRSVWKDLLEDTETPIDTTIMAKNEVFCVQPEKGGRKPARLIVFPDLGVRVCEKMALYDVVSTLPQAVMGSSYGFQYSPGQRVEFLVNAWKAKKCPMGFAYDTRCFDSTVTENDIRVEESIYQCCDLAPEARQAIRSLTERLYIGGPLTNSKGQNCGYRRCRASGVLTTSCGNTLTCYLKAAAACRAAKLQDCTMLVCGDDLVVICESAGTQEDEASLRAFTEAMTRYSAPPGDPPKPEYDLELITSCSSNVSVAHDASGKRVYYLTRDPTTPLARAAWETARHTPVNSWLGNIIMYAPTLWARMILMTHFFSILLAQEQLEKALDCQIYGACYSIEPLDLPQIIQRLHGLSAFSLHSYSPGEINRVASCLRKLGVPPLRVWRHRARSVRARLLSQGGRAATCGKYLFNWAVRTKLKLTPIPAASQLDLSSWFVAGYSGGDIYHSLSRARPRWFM

CN1CC2CCC(C1)N2C(=O)[C@]12C[C@H]1c1cc(F)ccc1-c1c(C3CCCCC3)c3ccc(C(=O)NS(=O)(=O)C4(C)CC4)cc3n1C2 [Compound I, (1aR,12bS)-8-cyclohexyl-11-fluoro-N-((1-methylcyclopropyl)sulfonyl)-1a-((3-methyl-3,8-diazabicyclo[3.2.1]oct-8-yl)carbonyl)-1,1a,2,12b-tetrahydrocyclopropa[d]indolo[2,1-a][2]benzazepine-5-carboxamide]
IC50 [1]: 23.4 µM
EC50 [2]: 7 nM
inhibition at 10 μM ([3]; pH 7.4, Conc. 10 μM): 30.5 ± 1.9%
inhibition at 30 μM ([3]; pH 7.4, Conc. 30 μM): 43.4 ± 2%
IC50 [4]: 5 nM
